Data on 26 compounds can be found in ChEMBL document CHEMBL6127107, “Oleanolic acid derivatives against drug-resistant bacteria and fungi by multi-targets to avoid drug resistance” (Eur J Med Chem, 2024).

Values after ≈ are worked out from the molar mass of the structure shown.

Assay type in all cases: functional
The subject of experiment [1] is Staphylococcus aureus. Put plainly: Antimicrobial activity against Staphylococcus aureus 29.
In experiment [2] the test system is Staphylococcus aureus. Put plainly: Antimicrobial activity against Staphylococcus aureus 31.
Experiment [3] deals with Staphylococcus aureus. Nature of the experiment: Antimicrobial activity against Staphylococcus aureus 10.
Experiment [4] relates to Staphylococcus aureus. Put plainly: Antimicrobial activity against methicillin-resistant Staphylococcus aureus 011.
A further experiment relates to Escherichia coli. Nature of the experiment: Antimicrobial activity against Escherichia coli.
In another experiment the test system is Pseudomonas aeruginosa. Nature of the experiment: Antimicrobial activity against Pseudomonas aeruginosa.
In another experiment the test system is Enterococcus faecalis. Put plainly: Antimicrobial activity against vancomycin resistant Enterococcus faecalis ATCC 51299.
The subject of another experiment is Candida albicans. Put plainly: Antimicrobial activity against fluconazole-resistant Candida albicans.
Experiment [5] concerns Staphylococcus aureus. Nature of the experiment: Antimicrobial activity against methicillin-resistant Staphylococcus aureus 003.

In general, MIC refers to the least concentration at which growth counts as inhibited. `CCCCCCCCCCCCC(=O)O[C@H]1CC[C@]2(C)[C@H]3CC=C4[C@@H]5CC(C)(C)CC[C@]5(C(=O)O)CC[C@@]4(C)[C@]3(C)CC[C@H]2C1(C)C`: the MIC in the experiment on Staphylococcus aureus [1], against Staphylococcus aureus [2], with Staphylococcus aureus [3], in the experiment on Staphylococcus aureus [4], with Escherichia coli and against Pseudomonas aeruginosa was over 64 µg/mL each time. Further, the MIC in the experiment with Enterococcus faecalis, in the experiment on Candida albicans and against Staphylococcus aureus [5] was over 64 µg/mL each time.

For the compound `CC1(C)[C@@H](O[C@@H]2O[C@H](C(=O)O)[C@@H](O)[C@H](O[C@@H]3O[C@H](C(=O)O)[C@@H](O)[C@H](O)[C@H]3O)[C@H]2O)CC[C@]2(C)[C@H]3C(=O)C=C4[C@@H]5C[C@@](C)(C(=O)O)CC[C@]5(C)CC[C@@]4(C)[C@]3(C)CC[C@@H]12` [GLYCYRRHIZINIC ACID], the MIC against Enterococcus faecalis and against Staphylococcus aureus [5] was over 512 µg/mL in each case.

As for `CCCCCCCCCCCCCOC(=O)[C@]12CCC(C)(C)C[C@H]1C1=CC[C@@H]3[C@@]4(C)CC[C@H](O)C(C)(C)[C@@H]4CC[C@@]3(C)[C@]1(C)CC2`, the MIC in the experiment on Staphylococcus aureus [1], in the experiment with Staphylococcus aureus [2], in the experiment on Staphylococcus aureus [3], against Staphylococcus aureus [4], in the experiment with Escherichia coli and against Pseudomonas aeruginosa was over 64 µg/mL throughout. The MIC in the experiment with Enterococcus faecalis, with Candida albicans and against Staphylococcus aureus [5] was over 64 µg/mL each time.

As for `CCCCC(=O)O[C@H]1CC[C@]2(C)[C@H]3CC=C4[C@@H]5CC(C)(C)CC[C@]5(C(=O)O)CC[C@@]4(C)[C@]3(C)CC[C@H]2C1(C)C`, the MIC in the experiment with Staphylococcus aureus [1], with Staphylococcus aureus [2], in the experiment on Staphylococcus aureus [3], against Staphylococcus aureus [4], with Escherichia coli and against Pseudomonas aeruginosa was over 64 µg/mL in each case. Also, the MIC against Enterococcus faecalis, in the experiment with Candida albicans and with Staphylococcus aureus [5] was over 64 µg/mL in each case.

On to `C[C@H]1[C@H](C)CC[C@]2(C(=O)O)CC[C@]3(C)C(=CC[C@@H]4[C@@]5(C)CC[C@H](O)C(C)(C)[C@@H]5CC[C@]43C)[C@H]12` [URSOLIC ACID], for which the MIC against Enterococcus faecalis and in the experiment with Staphylococcus aureus [5] was 64 µg/mL (≈ 140 µM) in each case.

In the case of `CC1(C)C(OC(=O)c2ccccc2)CC[C@]2(C)C3=C([C@@H](O)C[C@@H]12)[C@@]1(C)CC[C@@]2(C)CC[C@@](C)(COC(=O)c4ccccc4)C[C@H]2[C@]1(C)CC3` (some centres not stated), the MIC in the experiment on Enterococcus faecalis and against Staphylococcus aureus [5] was over 512 µg/mL throughout.

As to `CC1(C)CC[C@]2(C(=O)O)CC[C@]3(C)C(=CC[C@@H]4[C@@]5(C)CCC(=O)C(C)(C)[C@@H]5CC[C@]43C)[C@@H]2C1` [OLEANONIC ACID], the values for the MIC against Enterococcus faecalis and with Staphylococcus aureus [5] were 512 µg/mL (≈ 1130 µM) and 256 µg/mL (≈ 563 µM), respectively.

As for `CCCCCOC(=O)[C@]12CCC(C)(C)C[C@H]1C1=CC[C@@H]3[C@@]4(C)CC[C@H](O)C(C)(C)[C@@H]4CC[C@@]3(C)[C@]1(C)CC2`, the MIC in the experiment on Staphylococcus aureus [1], in the experiment on Staphylococcus aureus [2], against Staphylococcus aureus [3], against Staphylococcus aureus [4], with Escherichia coli and against Pseudomonas aeruginosa was over 64 µg/mL throughout. Further, the MIC in the experiment on Enterococcus faecalis, with Candida albicans and in the experiment on Staphylococcus aureus [5] was over 64 µg/mL in each case.

Take `CC1(C)CC[C@]2(C(=O)O)CC[C@]3(C)C(=CC[C@@H]4[C@@]5(C)CC[C@H](O[C@@H]6O[C@H](C(=O)O)[C@@H](O)[C@H](O[C@@H]7OC[C@@H](O)[C@H](O)[C@H]7O)[C@H]6O)C(C)(C)[C@@H]5CC[C@]43C)[C@@H]2C1`: the MIC with Enterococcus faecalis and in the experiment with Staphylococcus aureus [5] was over 512 µg/mL each time.

For the compound `CCNCC(O)CO[C@H]1CC[C@]2(C)[C@H]3CC=C4[C@@H]5CC(C)(C)CC[C@]5(C(=O)O)CC[C@@]4(C)[C@]3(C)CC[C@H]2C1(C)C` (some centres not stated), the MIC in the experiment with Staphylococcus aureus [1], against Staphylococcus aureus [2], against Staphylococcus aureus [3], in the experiment on Staphylococcus aureus [4], with Escherichia coli and in the experiment with Pseudomonas aeruginosa was over 64 µg/mL in each case. The minimal inhibitory concentration (MIC) against Enterococcus faecalis, with Candida albicans and against Staphylococcus aureus [5] was over 64 µg/mL each time.

`C[C@H]1[C@H](C)CC[C@]2(C(=O)O)CC[C@]3(C)C(=CC[C@@H]4[C@@]5(C)C[C@@H](O)[C@H](O)C(C)(C)[C@@H]5CC[C@]43C)[C@H]12` [COROSOLIC ACID]: the MIC in the experiment on Enterococcus faecalis was 32 µg/mL (≈ 67.7 µM); with Staphylococcus aureus [5], 16 µg/mL (≈ 33.8 µM).

For `C[C@H]1[C@H](C)CC[C@]2(C)CC[C@]3(C)C(=CC[C@@H]4[C@@]5(C)CC[C@H](O)C(C)(C)[C@@H]5CC[C@]43C)[C@H]12`, the MIC in the experiment with Enterococcus faecalis and against Staphylococcus aureus [5] was over 512 µg/mL in each case.

For `COC(=O)[C@@]1(C)CC[C@]2(C(=O)OC3O[C@H](CO)[C@@H](O)[C@H](O)[C@H]3O)CC[C@]3(C)C(=CC[C@@H]4[C@@]5(C)CC[C@H](O[C@@H]6OC[C@@H](O)[C@H](O)[C@H]6O)[C@@](C)(CO)[C@@H]5CC[C@]43C)[C@@H]2C1` (some centres not stated), the MIC in the experiment on Enterococcus faecalis and against Staphylococcus aureus [5] was over 512 µg/mL each time.

`C[C@H]1[C@H](C)CC[C@]2(C)CC[C@]3(C)C(=CC(=O)[C@@H]4[C@@]5(C)CC[C@@H](O)[C@](C)(C(=O)O)[C@@H]5CC[C@]43C)[C@H]12` [11-KETO BOSWELLIC ACID]: the MIC in the experiment on Enterococcus faecalis turned out to be 32 µg/mL (≈ 68 µM); against Staphylococcus aureus [5], 16 µg/mL (≈ 34 µM).

As for `CC(=O)O[C@H]1CC[C@]2(C)[C@H]3CC=C4[C@@H]5CC(C)(C)CC[C@]5(C(=O)NCc5ccoc5)CC[C@@]4(C)[C@]3(C)CC[C@H]2C1(C)C`, the MIC with Staphylococcus aureus [1], with Staphylococcus aureus [2], with Staphylococcus aureus [3], against Staphylococcus aureus [4], in the experiment on Escherichia coli and in the experiment on Pseudomonas aeruginosa was over 64 µg/mL in each case. The MIC with Enterococcus faecalis, against Candida albicans and with Staphylococcus aureus [5] was over 64 µg/mL in each case.

Consider `C[C@H]1[C@H](C)CC[C@]2(C(=O)O)CC[C@]3(C)C(=CC[C@@H]4[C@@]5(C)CCC(=O)C(C)(C)[C@@H]5CC[C@]43C)[C@H]12` [URSONIC ACID], for which the MIC in the experiment on Enterococcus faecalis is 256 µg/mL (≈ 563 µM); against Staphylococcus aureus [5] it was 128 µg/mL (≈ 282 µM).

For `CC(=O)O[C@H]1CC[C@]2(C)[C@H]3CC=C4[C@@H]5CC(C)(C)CC[C@]5(C(=O)NCc5ccc(F)cc5)CC[C@@]4(C)[C@]3(C)CC[C@H]2C1(C)C`, the MIC in the experiment with Staphylococcus aureus [1], in the experiment on Staphylococcus aureus [2], in the experiment on Staphylococcus aureus [3], against Staphylococcus aureus [4], with Escherichia coli and in the experiment on Pseudomonas aeruginosa was over 64 µg/mL throughout. The MIC in the experiment on Enterococcus faecalis, against Candida albicans and with Staphylococcus aureus [5] was over 64 µg/mL in each case.

As for `CC(=O)O[C@H]1CC[C@]2(C)[C@H]3CC=C4[C@@H]5CC(C)(C)CC[C@]5(C(=O)NCCc5ccccc5)CC[C@@]4(C)[C@]3(C)CC[C@H]2C1(C)C`, the MIC in the experiment with Staphylococcus aureus [1], in the experiment on Staphylococcus aureus [2], against Staphylococcus aureus [3], against Staphylococcus aureus [4], with Escherichia coli and against Pseudomonas aeruginosa was over 64 µg/mL throughout. Moreover, the minimum inhibitory concentration (MIC) in the experiment with Enterococcus faecalis, against Candida albicans and against Staphylococcus aureus [5] was over 64 µg/mL throughout.

As for `CCCOC(=O)[C@]12CCC(C)(C)C[C@H]1C1=CC[C@@H]3[C@@]4(C)CC[C@H](O)C(C)(C)[C@@H]4CC[C@@]3(C)[C@]1(C)CC2`, the MIC in the experiment on Staphylococcus aureus [1], in the experiment with Staphylococcus aureus [2], against Staphylococcus aureus [3], against Staphylococcus aureus [4], in the experiment on Escherichia coli and with Pseudomonas aeruginosa was over 64 µg/mL throughout. Also, the MIC against Enterococcus faecalis, with Candida albicans and in the experiment with Staphylococcus aureus [5] was over 64 µg/mL throughout.

As to `CCNC(=O)[C@]12CCC(C)(C)C[C@H]1C1=CC[C@@H]3[C@@]4(C)CC[C@H](OC(C)=O)C(C)(C)[C@@H]4CC[C@@]3(C)[C@]1(C)CC2`, the MIC in the experiment on Staphylococcus aureus [1], against Staphylococcus aureus [2], in the experiment with Staphylococcus aureus [3], against Staphylococcus aureus [4], in the experiment on Escherichia coli and against Pseudomonas aeruginosa was over 64 µg/mL in each case. The MIC against Enterococcus faecalis, against Candida albicans and against Staphylococcus aureus [5] was over 64 µg/mL throughout.

Take `CC1(C)CC[C@]2(C(=O)O)CC[C@]3(C)C(=CC[C@@H]4[C@@]5(CO)C[C@@H](O)[C@H](O)[C@@](C)(CO)[C@@H]5CC[C@]43C)[C@@H]2C1`: the MIC in the experiment with Enterococcus faecalis and in the experiment on Staphylococcus aureus [5] was over 512 µg/mL in each case.

For the compound `C=C1CC[C@]2(C)CC[C@]3(C)[C@H](CC[C@@H]4[C@@]5(C)CC[C@H](OC(C)=O)C(C)(C)[C@@H]5CC[C@]43C)[C@H]2[C@@H]1C` [TARAXASTEROL ACETATE], the MIC against Enterococcus faecalis and in the experiment with Staphylococcus aureus [5] was over 512 µg/mL throughout.

As for `C[C@H]1[C@H](C)CC[C@]2(C(=O)O)CC[C@]3(C)C(=CC[C@@H]4[C@@]5(C)C[C@@H](O)[C@H](O)[C@@](C)(CO)[C@@H]5CC[C@]43C)[C@H]12` [ASIATIC ACID], the MIC amounted to 32 µg/mL (≈ 65.5 µM) with Enterococcus faecalis and 16 µg/mL (≈ 32.7 µM) against Staphylococcus aureus [5].

In the case of `C[C@H]1[C@H](C)CC[C@]2(C)CC[C@]3(C)C(=CC[C@@H]4[C@@]5(C)CC[C@@H](O)[C@](C)(C(=O)O)[C@@H]5CC[C@]43C)[C@H]12` [BOSWELLIC ACID], the MIC with Enterococcus faecalis and against Staphylococcus aureus [5] was 8 µg/mL (≈ 17.5 µM) in each case.

Turning to `C[C@@H]1CC[C@]2(C(=O)O)CC[C@]3(C)C(=CC[C@@H]4[C@@]5(C)CC[C@H](O)[C@@](C)(CO)[C@@H]5CC[C@]43C)[C@@H]2[C@]1(C)O` [ROTUNDIC ACID], the MIC against Enterococcus faecalis was 256 µg/mL (≈ 524 µM); in the experiment with Staphylococcus aureus [5], 128 µg/mL (≈ 262 µM).

For the compound `CC1(C)CC[C@]2(C(=O)O[C@@H]3O[C@H](CO)[C@H](O)[C@H](O)[C@H]3O)CC[C@]3(C)C(=CC[C@@H]4[C@@]5(C)CC[C@H](O[C@@H]6O[C@H](C(=O)O)[C@@H](O)[C@H](O)[C@H]6O)C(C)(C)[C@@H]5CC[C@]43C)[C@@H]2C1`, the MIC in the experiment with Enterococcus faecalis and against Staphylococcus aureus [5] was over 512 µg/mL in each case.
